{"source": "paper PMC7187165", "about": "“Structure‐Based Design, Synthesis, and Biological Evaluation of Triazole‐Based smHDAC8 Inhibitors” (Chemmedchem, 2020)", "key": {"[1]": {"target": "T1, hsHDAC1 (Homo sapiens, UniProt Q13547)", "T1 sequence (Q13547 whole entry)": "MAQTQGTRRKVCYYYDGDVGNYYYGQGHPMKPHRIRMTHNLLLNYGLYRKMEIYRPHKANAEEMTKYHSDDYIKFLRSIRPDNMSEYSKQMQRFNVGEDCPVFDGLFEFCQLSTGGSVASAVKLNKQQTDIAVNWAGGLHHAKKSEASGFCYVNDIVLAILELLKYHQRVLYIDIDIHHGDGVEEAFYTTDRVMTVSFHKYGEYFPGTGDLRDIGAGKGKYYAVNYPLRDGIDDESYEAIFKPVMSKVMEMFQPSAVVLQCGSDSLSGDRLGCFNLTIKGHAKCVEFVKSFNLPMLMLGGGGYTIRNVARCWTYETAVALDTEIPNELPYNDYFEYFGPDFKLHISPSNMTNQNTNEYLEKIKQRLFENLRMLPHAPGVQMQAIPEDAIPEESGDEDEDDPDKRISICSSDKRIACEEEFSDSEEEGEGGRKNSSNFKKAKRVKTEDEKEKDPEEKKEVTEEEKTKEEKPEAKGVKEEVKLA", "assay": "In vitro hsHDAC1 inhibition (ZMAL substrate, trypsin developer)", "type": "biochemical", "conditions": "read-out: hsHDAC1 (% inhibition, ZMAL)"}, "[2]": {"target": "T2, smHDAC8 (Schistosoma mansoni, UniProt A5H660)", "T2 construct": "made in house; host or cells: E. coli", "T2 sequence (A5H660 1-440)": "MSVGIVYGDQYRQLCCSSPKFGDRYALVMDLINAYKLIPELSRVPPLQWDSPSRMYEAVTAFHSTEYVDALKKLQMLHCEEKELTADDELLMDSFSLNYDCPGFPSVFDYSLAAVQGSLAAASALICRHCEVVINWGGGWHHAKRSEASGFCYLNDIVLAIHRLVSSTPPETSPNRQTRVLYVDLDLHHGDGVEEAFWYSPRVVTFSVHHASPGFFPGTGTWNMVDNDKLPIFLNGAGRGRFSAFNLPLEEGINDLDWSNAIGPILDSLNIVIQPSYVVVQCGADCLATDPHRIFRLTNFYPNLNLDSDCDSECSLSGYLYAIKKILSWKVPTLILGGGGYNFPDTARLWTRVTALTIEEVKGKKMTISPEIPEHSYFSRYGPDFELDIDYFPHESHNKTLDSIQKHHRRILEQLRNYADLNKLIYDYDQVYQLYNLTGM", "assay": "biochemical", "type": "biochemical", "conditions": "@ 10 μM; pretest n=1; read-out: smHDAC8 (% inhibition, Fluor de Lys)"}, "[3]": {"target": "T1, hsHDAC1", "design": "method as in PMID 24086136, PMID 26013035", "conditions": "@ 10 μM; SAHA row of Table 3; cited from earlier work"}}}
{"smiles": "O=C(CCCCCCC(=O)Nc1ccccc1)NO", "note": "[SAHA (1), SAHA, reference compound]", "values": [{"measurement": "inhibition at 10 µM", "setting": "[1]", "result": "97.3 ± 1.3", "unit": "%"}, {"measurement": "inhibition at 10 µM", "setting": "[2]", "result": 72, "unit": "%"}, {"measurement": "hsHDAC1 % inhibition (ZMAL)", "setting": "[3]", "result": "0.117±0.0056 97.3±1.3 % @ 10 μM"}]}
